Data: patent US20220187282A1, “CARDIOMYOCYTE PROLIFERATION” (The Council of the Queensland Institute of Medical Research, priority 2019, published 2022)
Like-named read-outs stand apart in the source and are kept apart here.

Assays:
Format in all cases: biochemical
kinases [1] = biological target: kinases (Homo sapiens, UniProt O00418); conditions: EEF2K FRET-Z-Lyte SP; Test Conc(μM):ATP Conc(μM) 1:10
kinases [2] = biological target: kinases (Homo sapiens, UniProt O14757); conditions: CHEK1 (CHK1) FRET-Z-Lyte SP; Test Conc(μM):ATP Conc(μM) 1:50
kinases [3] = biological target: kinases (Homo sapiens, UniProt O14976); conditions: GAK FRET-Lantha SP; Test Conc(μM) 1
kinases [4] = biological target: kinases (Homo sapiens, UniProt O15146); conditions: MUSK *Mn* FRET-Z-Lyte SP; Test Conc(μM):ATP Conc(μM) 1:50
kinases [5] = biological target: kinases (Homo sapiens, UniProt O96013); conditions: PAK4 FRET-Z-Lyte SP; Test Conc(μM):ATP Conc(μM) 1:5
kinases [6] = biological target: kinases (Homo sapiens, UniProt P04626); conditions: ERBB2 (HER2) *Mn* Z-Lyte SP; Test Conc(μM):ATP Conc(μM) 1:10
kinases [7] = biological target: kinases (Homo sapiens, UniProt P06241)
kinases [8] = biological target: kinases (Homo sapiens, UniProt P12931); conditions: SRC Hu Phos FRET-Z-Lyte SP; Test Conc(μM):ATP Conc(μM) 1:50
kinases [9] = biological target: kinases (Homo sapiens, UniProt P17612); conditions: PRKACA (PKA) FRET-Z-Lyte SP; Test Conc(μM):ATP Conc(μM) 1:5
kinases [10] = biological target: kinases (Homo sapiens, UniProt P19784); conditions: CSNK2A2 (CK2alpha2) Z-Lyte SP; Test Conc(μM):ATP Conc(μM) 1:50
kinases [11] = biological target: kinases (Homo sapiens, UniProt P29320); conditions: EPHA3 FRET-Lantha SP; Test Conc(μM) 1
kinases [12] = biological target: kinases (Homo sapiens, UniProt P29322); conditions: EPHA8 FRET-Z-Lyte SP; Test Conc(μM):ATP Conc(μM) 1:100
kinases [13] = biological target: kinases (Homo sapiens, UniProt P42680); conditions: TEC FRET-Lantha SP; Test Conc(μM) 1
kinases [14] = biological target: kinases (Homo sapiens, UniProt P42684); conditions: ABL2 (Arg) FRET-Z-Lyte SP; Test Conc(μM):ATP Conc(μM) 1:25
kinases [15] = biological target: kinases (Homo sapiens, UniProt P42685); conditions: FRK (PTK5) FRET-Z-Lyte SP; Test Conc(μM):ATP Conc(μM) 1:50
kinases [16] = biological target: kinases (Homo sapiens, UniProt P53355); conditions: DAPK1 FRET-Adapta SP; Test Conc(μM):ATP Conc(μM) 1:5
kinases [17] = biological target: kinases (Homo sapiens, UniProt Q13976); conditions: PRKG1 FRET-Z-Lyte SP; Test Conc(μM):ATP Conc(μM) 1:25
kinases [18] = biological target: kinases (Homo sapiens, UniProt Q5TCX8); conditions: MLK4 FRET-Lantha SP; Test Conc(μM) 1
kinases [19] = biological target: kinases (Homo sapiens, UniProt Q8NEB9); conditions: PIK3C3 (hVPS34) *Mn* Adapta SP; Test Conc(μM):ATP Conc(μM) 1:10
kinases [20] = biological target: kinases (Homo sapiens, UniProt Q8TCG2); conditions: PI4K2B *Mn* FRET-Adapta SP; Test Conc(μM):ATP Conc(μM) 1:10
kinases [21] = biological target: kinases (Homo sapiens, UniProt Q96GD4); conditions: AURKB (Aurora B) Z-Lyte SP; Test Conc(μM):ATP Conc(μM) 1:75
kinases [22] = biological target: kinases (Homo sapiens, UniProt Q99683); conditions: MAP3K5 (ASK1) FRET-Lantha SP; Test Conc(μM) 1
kinases [23] = biological target: kinases (Homo sapiens, UniProt Q9H0K1); conditions: SNF1LK2 FRET-Z-Lyte SP; Test Conc(μM):ATP Conc(μM) 1:50
kinases [24] = biological target: kinases (Homo sapiens, UniProt Q9HCP0); conditions: CSNK1G1 (CK1gamma1) Z-Lyte SP; Test Conc(μM):ATP Conc(μM) 1:5
kinases [25] = biological target: kinases (Homo sapiens, UniProt Q9NYA1); conditions: SPHK1 FRET-Adapta SP; Test Conc(μM):ATP Conc(μM) 1:10
kinases [26] = biological target: kinases (Homo sapiens, UniProt Q9UL54); conditions: TAOK2 (TAO1) FRET-Z-Lyte SP
kinases [27] = biological target: kinases (Homo sapiens, UniProt Q9Y4K4); conditions: MAP4K5 (KHS1) FRET-Z-Lyte SP; Test Conc(μM):ATP Conc(μM) 1:50
kinases [28] = biological target: kinases (Homo sapiens, UniProt Q9Y572); conditions: RIPK3 FRET-Lantha SP; Test Conc(μM) 1
[29] = FYN A FRET-Lantha SP, Test Conc(μM) 1
[30] = FYN FRET-Z-Lyte SP, Test Conc(μM):ATP Conc(μM) 1:75

Chain of kinases (Homo sapiens, UniProt P06241) (P06241 whole entry): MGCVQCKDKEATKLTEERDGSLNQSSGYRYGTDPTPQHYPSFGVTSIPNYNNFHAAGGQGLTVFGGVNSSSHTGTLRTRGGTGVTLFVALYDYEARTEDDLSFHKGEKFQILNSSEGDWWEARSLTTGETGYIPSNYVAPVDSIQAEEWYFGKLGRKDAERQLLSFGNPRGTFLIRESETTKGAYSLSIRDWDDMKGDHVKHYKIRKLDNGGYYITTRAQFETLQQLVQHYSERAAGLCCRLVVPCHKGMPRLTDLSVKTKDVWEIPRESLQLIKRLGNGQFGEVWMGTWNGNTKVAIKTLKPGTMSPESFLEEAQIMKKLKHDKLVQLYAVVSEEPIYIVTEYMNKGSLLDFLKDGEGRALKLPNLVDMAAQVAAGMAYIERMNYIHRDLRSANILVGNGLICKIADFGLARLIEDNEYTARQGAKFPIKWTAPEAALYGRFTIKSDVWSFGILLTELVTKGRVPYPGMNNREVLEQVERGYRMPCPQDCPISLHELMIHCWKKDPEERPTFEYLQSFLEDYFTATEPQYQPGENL
Chain of kinases (Homo sapiens, UniProt O00418) (O00418 whole entry): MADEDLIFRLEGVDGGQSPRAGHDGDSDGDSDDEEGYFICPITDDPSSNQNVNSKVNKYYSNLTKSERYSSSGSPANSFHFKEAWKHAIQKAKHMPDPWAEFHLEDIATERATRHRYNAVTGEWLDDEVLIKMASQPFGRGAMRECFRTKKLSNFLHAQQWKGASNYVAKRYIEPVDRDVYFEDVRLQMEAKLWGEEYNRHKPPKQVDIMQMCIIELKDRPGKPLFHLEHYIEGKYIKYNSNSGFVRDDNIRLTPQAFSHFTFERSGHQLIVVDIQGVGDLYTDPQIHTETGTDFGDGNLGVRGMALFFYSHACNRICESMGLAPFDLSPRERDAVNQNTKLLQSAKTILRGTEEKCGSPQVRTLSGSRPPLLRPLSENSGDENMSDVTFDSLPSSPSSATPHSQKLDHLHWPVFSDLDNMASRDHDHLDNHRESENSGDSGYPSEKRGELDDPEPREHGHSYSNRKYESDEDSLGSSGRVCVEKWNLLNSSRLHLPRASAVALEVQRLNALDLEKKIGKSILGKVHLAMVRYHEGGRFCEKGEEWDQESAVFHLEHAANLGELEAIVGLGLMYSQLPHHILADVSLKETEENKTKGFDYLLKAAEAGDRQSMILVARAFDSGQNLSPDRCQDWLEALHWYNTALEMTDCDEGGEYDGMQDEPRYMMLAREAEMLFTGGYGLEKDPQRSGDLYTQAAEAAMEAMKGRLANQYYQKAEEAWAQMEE
Chain of kinases (Homo sapiens, UniProt P29322) (P29322 28-1005): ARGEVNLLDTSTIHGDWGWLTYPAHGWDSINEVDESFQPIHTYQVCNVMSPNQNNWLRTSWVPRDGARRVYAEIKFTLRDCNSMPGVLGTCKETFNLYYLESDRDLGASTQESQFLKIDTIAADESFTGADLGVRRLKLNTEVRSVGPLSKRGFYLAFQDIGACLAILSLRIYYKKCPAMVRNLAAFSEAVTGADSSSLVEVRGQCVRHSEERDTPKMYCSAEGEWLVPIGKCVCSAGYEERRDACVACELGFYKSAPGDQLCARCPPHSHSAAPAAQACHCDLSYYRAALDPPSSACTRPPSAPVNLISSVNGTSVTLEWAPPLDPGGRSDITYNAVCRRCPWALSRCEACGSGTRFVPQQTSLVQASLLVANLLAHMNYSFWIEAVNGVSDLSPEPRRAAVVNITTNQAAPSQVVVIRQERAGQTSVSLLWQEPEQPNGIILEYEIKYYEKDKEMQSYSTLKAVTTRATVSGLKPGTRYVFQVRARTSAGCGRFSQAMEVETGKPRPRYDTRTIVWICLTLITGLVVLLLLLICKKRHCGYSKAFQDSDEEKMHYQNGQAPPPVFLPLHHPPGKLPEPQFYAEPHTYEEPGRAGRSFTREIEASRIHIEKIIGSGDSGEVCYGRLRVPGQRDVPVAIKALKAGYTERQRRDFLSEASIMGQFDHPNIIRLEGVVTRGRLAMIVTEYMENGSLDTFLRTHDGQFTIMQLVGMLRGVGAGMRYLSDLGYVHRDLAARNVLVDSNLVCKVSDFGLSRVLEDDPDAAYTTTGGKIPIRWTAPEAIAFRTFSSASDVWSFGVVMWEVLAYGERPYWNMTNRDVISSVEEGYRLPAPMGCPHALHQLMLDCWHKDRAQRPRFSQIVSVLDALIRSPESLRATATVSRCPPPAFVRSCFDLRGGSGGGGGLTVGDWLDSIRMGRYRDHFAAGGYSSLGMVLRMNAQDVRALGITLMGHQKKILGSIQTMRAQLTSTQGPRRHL
Chain of kinases (Homo sapiens, UniProt O14976) (O14976 whole entry): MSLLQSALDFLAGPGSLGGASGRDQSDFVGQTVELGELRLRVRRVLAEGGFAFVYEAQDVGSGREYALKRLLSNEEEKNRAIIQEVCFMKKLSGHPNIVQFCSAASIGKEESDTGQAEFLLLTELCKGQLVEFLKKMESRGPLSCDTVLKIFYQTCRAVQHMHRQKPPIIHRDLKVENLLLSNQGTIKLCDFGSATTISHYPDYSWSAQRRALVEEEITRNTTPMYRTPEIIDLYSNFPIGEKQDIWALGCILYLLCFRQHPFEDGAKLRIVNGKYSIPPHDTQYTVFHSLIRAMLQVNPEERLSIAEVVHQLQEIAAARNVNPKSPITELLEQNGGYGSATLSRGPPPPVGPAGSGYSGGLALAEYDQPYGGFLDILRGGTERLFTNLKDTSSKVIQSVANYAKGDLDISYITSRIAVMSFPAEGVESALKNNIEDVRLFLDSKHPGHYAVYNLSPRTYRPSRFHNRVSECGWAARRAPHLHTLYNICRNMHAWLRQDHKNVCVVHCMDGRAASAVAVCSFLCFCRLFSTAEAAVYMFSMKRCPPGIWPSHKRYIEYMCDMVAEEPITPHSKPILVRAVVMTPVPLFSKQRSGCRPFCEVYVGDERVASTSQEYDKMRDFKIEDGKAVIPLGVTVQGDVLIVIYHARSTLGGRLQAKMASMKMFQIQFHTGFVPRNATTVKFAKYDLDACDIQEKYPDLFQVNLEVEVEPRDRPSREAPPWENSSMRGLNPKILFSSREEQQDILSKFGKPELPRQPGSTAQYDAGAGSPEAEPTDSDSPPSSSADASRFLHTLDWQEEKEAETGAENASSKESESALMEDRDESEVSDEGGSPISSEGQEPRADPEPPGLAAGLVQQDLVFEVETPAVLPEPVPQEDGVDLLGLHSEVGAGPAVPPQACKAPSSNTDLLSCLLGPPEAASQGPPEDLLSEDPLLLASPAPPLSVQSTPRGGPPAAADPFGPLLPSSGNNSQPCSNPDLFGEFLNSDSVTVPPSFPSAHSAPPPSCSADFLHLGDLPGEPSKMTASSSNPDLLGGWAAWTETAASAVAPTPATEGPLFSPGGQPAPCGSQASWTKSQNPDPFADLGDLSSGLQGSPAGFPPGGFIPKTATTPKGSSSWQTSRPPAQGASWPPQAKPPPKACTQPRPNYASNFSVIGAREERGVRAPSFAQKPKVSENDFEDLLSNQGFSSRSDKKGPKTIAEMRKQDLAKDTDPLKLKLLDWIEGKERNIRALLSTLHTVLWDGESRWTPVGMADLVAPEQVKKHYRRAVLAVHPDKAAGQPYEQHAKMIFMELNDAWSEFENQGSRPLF
Chain of kinases (Homo sapiens, UniProt Q9Y572) (Q9Y572 whole entry): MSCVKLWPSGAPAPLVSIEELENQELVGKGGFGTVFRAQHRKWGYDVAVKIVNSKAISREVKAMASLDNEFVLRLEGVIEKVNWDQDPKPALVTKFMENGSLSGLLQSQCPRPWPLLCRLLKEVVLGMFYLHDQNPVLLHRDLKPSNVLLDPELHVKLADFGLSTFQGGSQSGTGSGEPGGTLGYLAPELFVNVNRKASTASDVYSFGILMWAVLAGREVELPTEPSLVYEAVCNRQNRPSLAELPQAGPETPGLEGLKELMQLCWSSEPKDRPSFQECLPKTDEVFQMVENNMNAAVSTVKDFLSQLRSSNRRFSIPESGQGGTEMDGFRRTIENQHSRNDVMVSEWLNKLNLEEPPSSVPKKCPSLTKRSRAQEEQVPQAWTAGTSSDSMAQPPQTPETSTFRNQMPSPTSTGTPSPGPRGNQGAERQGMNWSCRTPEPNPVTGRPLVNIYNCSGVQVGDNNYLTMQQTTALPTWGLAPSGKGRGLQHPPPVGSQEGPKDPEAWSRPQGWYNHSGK
Chain of kinases (Homo sapiens, UniProt P42685) (P42685 whole entry): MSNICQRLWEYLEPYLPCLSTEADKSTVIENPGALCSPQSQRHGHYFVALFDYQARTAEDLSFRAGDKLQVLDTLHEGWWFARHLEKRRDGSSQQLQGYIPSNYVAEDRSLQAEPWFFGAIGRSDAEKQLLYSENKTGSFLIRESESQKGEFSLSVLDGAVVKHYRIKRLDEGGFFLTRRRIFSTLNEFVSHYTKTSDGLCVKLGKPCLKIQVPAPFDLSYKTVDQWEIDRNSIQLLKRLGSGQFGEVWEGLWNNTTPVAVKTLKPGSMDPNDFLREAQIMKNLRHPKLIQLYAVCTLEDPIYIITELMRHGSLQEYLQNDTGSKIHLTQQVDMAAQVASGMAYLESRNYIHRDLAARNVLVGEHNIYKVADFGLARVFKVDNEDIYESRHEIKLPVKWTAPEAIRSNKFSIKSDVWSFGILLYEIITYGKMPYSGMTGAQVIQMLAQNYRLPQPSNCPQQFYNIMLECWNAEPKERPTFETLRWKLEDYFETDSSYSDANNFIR
Chain of kinases (Homo sapiens, UniProt P19784) (P19784 whole entry): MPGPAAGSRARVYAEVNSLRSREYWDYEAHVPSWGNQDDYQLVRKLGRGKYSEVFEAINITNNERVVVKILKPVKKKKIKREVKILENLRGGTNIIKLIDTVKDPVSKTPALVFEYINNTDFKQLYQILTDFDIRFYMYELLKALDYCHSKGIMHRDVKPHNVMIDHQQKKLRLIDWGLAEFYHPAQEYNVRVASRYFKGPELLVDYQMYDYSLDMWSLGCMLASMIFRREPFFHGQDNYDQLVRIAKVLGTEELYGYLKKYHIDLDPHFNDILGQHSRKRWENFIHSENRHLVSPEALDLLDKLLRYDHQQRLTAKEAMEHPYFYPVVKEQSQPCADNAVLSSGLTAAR

Structure (SMILES)	Mean Inhib (%) (kinases [1])	Mean Inhib (%) (kinases [2])	Mean Inhib (%) (kinases [3])	Mean Inhib (%) (kinases [4])	Mean Inhib (%) (kinases [5])	Mean Inhib (%) (kinases [6])	Mean Inhib (%) (kinases [7]; [29])	Mean Inhib (%) (kinases [7]; [30])	Mean Inhib (%) (kinases [8])	Mean Inhib (%) (kinases [9])	Mean Inhib (%) (kinases [10])	Mean Inhib (%) (kinases [11])	Mean Inhib (%) (kinases [12])	Mean Inhib (%) (kinases [13])	Mean Inhib (%) (kinases [14])	Mean Inhib (%) (kinases [15])	Mean Inhib (%) (kinases [16])	Mean Inhib (%) (kinases [17])	Mean Inhib (%) (kinases [18])	Mean Inhib (%) (kinases [19])	other results
Cc1ccc(NC(=O)c2ccnc(N3CCOCC3)c2)cc1Nc1ccnc(N2CC(C)OC(C)C2)n1 (stereo not shown) [compound 3]	5.5	6.3	29.0	19.5	0.9	2.7	4.8	5.1	14.3	2.2	9.9	4.8	8.6	5.7	−1.3	5.7	1.4	5.7	−1.5	3.5	Mean Inhib (%) (kinases [20]): −15.8%; Mean Inhib (%) (kinases [21]): 4.9%; Mean Inhib (%) (kinases [22]): 0.2%; Mean Inhib (%) (kinases [23]): 15.9%; Mean Inhib (%) (kinases [24]): 5.2%; Mean Inhib (%) (kinases [25]): 8.0%; Mean Inhib (%) (kinases [26]; Test Conc(μM):ATP Conc(μM) 1:300): −3.6%; Mean Inhib (%) (kinases [27]): −7.8%; Mean Inhib (%) (kinases [28]): 20.9%
Cc1cc(Oc2ccnc(Nc3ccc(S(N)(=O)=O)cc3)c2)c(-c2ccccn2)nc1C [compound 65]	3.7	14.8	39.3	17.2	7.4	10.1	27.5	43.1	54.4	−4.7	9.5	27.9	64.7	−1.4	82.6	60.1	−2.6	0.3	1.9	1.1	Mean Inhib (%) (kinases [20]): 1.8%; Mean Inhib (%) (kinases [21]): 2.7%; Mean Inhib (%) (kinases [22]): 6.1%; Mean Inhib (%) (kinases [23]): 10.7%; Mean Inhib (%) (kinases [24]): −1.9%; Mean Inhib (%) (kinases [25]): −0.7%; Mean Inhib (%) (kinases [26]; Test Conc(μM):ATP Conc(μM) 0.25): 13.7%; Mean Inhib (%) (kinases [27]): 38.0%; Mean Inhib (%) (kinases [28]): 76.6%
